# pEC50, pIC50: −log10 of the molar value. Read-outs that look alike come from different tables or passages of the source.
# System: cancer cell lines from the cancer cell line encyclopedia (CCLE)
# Experiment: Cell line profiling (CLiP) proliferation experiment
# Type: cell-based
# Parameters: ACTIVITY_AREA: scale not given here; AMAX: unit not given here
# Conditions: for pIC50: read-out: Crossing Point; for pEC50: read-out: Inflection Point
# Procedure: Compound profiling experiment and data analysis was performed as previously described. Data was imported and plotted using the Tibco Spotfire DXP application. Lines were categorized as sensitive, intermediate and refractory as follows: Amax<-40 & Inflection Point <2 ~ Sensitive, Amax>-20 & Inflection Point >10 ~ Refractory, all else were called Intermediate. Cancer Cell line HG-U133 Plus 2 data was processed and normalized as described. […] Five sets of refractory cell lines were generated from the pool of refractory cell lines trying to match the lineage composition of the set of sensitive cell lines. The limma package was used as previously described to perform the statistical comparison.
# [1] = Homo sapiens, ZR-75-30, ZR-75-30 cell line, breast, ductal_carcinoma
# [2] = KYO1, KYO-1 (haematopoietic_and_lymphoid_tissue)
# [3] = LP-1 (haematopoietic_and_lymphoid_tissue)
# [4] = Loucy (haematopoietic_and_lymphoid_tissue)
# [5] = MOLM16, cell line MOLM-16 (haematopoietic_and_lymphoid_tissue)
# [6] = NCI-H1869, lung, squamous_cell_carcinoma
# [7] = NCI-H2073, NCI-H2073, lung, adenocarcinoma
# [8] = OCI-M1, OCI-M1, haematopoietic_and_lymphoid_tissue, acute_myeloid_leukaemia
# [9] = PaTuÂ 8988s, cell line PA-TU-8988S
# [10] = SH-10-TC, cell line SH-10-TC, stomach
# [11] = SNU878, cell line SNU-878, liver, hepatocellular_carcinoma
# [12] = SUP-M2, SUP-M2 (haematopoietic_and_lymphoid_tissue, anaplastic_large_cell_lymphoma)
# [13] = T24 (urinary_tract, transitional_cell_carcinoma)
# [14] = T84 (large_intestine, adenocarcinoma)
# [15] = TE-1 (oesophagus, squamous_cell_carcinoma)
# [16] = TEN (endometrium, clear_cell_carcinoma)
# [17] = TT2609-C02 (thyroid, follicular_carcinoma)
# [18] = U266B1 (haematopoietic_and_lymphoid_tissue, plasma_cell_myeloma)
compound,measurement,setting,value
CC(C)[C@@]12C[C@@H](O)[C@@](C)(O1)[C@@H]1CC[C@@H](C)[C@H]1[C@@H]2OC(=O)/C=C/c1ccccc1 [Englerin B],pIC50,[1],< 4.52
same,pEC50,[1],4.53
same,pIC50,"Hs766T, cell line Hs 766T, pancreas",< 4.52
same,pIC50,"Hs766T, cell line Hs 766T",< 4.52
same,pIC50,Hs 940.T cells,< 4.52
same,pIC50,"IGR-39, cell line IGR-39, skin",< 4.52
same,pIC50,"IGR-39, cell line IGR-39",< 4.52
same,pIC50,"JHH7, JHH-7",4.86
same,pIC50,"JHH-2, JHH-2",< 4.52
same,pIC50,"JHH-2, cell line JHH-2",< 4.52
same,pIC50,JHH-5,4.91
same,pIC50,JHOM-1,4.54
same,pEC50,JHOM-1,4.54
same,pIC50,JHUEM-2,4.82
same,pIC50,JHUEM-2 cells,4.82
same,pIC50,K029AX (skin),< 4.52
same,pIC50,K029AX,< 4.52
same,pEC50,K029AX,4.58
same,pIC50,KASUMI-2,4.80
same,pEC50,KASUMI-2,4.98
same,pIC50,KASUMI-2 cells,4.80
same,pEC50,KASUMI-2 cells,4.98
same,pEC50,"KHM-1B, KHM-1B cells",4.77
same,pIC50,KHM-1B,4.71
same,pEC50,KHM-1B,4.77
same,pIC50,"KMM-1, KMM-1",4.80
same,pIC50,"KMRC-1, KMRC-1",< 4.52
same,pIC50,"KMRC-1, KMRC-1 cells",< 4.52
same,pIC50,KMRC-2,< 4.52
same,pIC50,KMRC-2 cells,< 4.52
same,pIC50,KMRC-20,< 4.52
same,pEC50,KMRC-20,6.85
same,pIC50,KMRC-20 cells,< 4.52
same,pEC50,KMRC-20 cells,6.85
same,pIC50,"KMS-26, KMS-26",4.81
same,pEC50,"KMS-26, KMS-26",4.78
same,pEC50,"KMS-26, KMS-26 cells",4.78
same,pIC50,"KMS-27, KMS-27",4.55
same,pEC50,"KMS-27, KMS-27",4.55
same,pIC50,"KMS-27, KMS-27 cells",4.55
same,pEC50,"KMS-27, KMS-27 cells",4.55
same,pIC50,KMS-28BM,4.53
same,pIC50,"KMS-34, KMS-34",4.55
same,pIC50,KO52,4.57
same,pIC50,KP-1NL (pancreas),< 4.52
same,pIC50,KP-1NL,< 4.52
same,pIC50,KP-N-SI9s,4.66
same,pEC50,KP-N-SI9s,4.64
same,pIC50,KP-N-YN (autonomic_ganglia),< 4.52
same,pIC50,KP-N-YN,< 4.52
same,pIC50,"KPL-1, KPL-1",4.70
same,pIC50,KS-1,4.55
same,pIC50,KURAMOCHI (ovary),4.68
same,pEC50,KURAMOCHI (ovary),4.79
same,pIC50,KYM-1 (soft_tissue),4.90
same,pIC50,[2],4.71
same,pEC50,[2],4.92
same,pEC50,"KYO1, KYO-1 cells",4.92
same,pIC50,"Karpas-620, KARPAS-620",4.75
same,pEC50,"Karpas-620, KARPAS-620",4.75
same,pIC50,Kelly,4.81
same,pEC50,Kelly,4.80
same,pIC50,Ki-JK (haematopoietic_and_lymphoid_tissue),4.84
same,pIC50,Ki-JK,4.84
same,pEC50,Ki-JK,4.85
same,pIC50,L3.3 (pancreas),< 4.52
same,pIC50,LC-1/sq-SF (lung),< 4.52
same,pEC50,LC-1/sq-SF (lung),4.64
same,pIC50,LK-2 (lung),< 4.52
same,pIC50,LMSU (stomach),4.70
same,pIC50,[3],4.73
same,pEC50,[3],4.73
same,pIC50,LP-6 (soft_tissue),< 4.52
same,pIC50,Li-7 (liver),< 4.52
same,pIC50,[4],4.87
same,pEC50,[4],4.91
same,pIC50,MB 157 (breast),< 4.52
same,pEC50,MB 157 (breast),4.83
same,pIC50,MCAS (ovary),< 4.52
same,pIC50,"MDST8, MDST8 (large_intestine)",< 4.52
same,pIC50,[5],4.82
same,pEC50,[5],4.82
same,pIC50,"Mel202, cell line Mel202 (eye)",< 4.52
same,pEC50,"Mel202, cell line Mel202 (eye)",4.69
same,pIC50,"Mel202, cell line Mel202",< 4.52
same,pIC50,"Mono-Mac-1, cell line MONO-MAC-1 (haematopoietic_and_lymphoid_tissue)",4.67
same,pIC50,"NCI-H196, NCI-H196, lung, small_cell_carcinoma",< 4.52
same,pIC50,"NCI-H196, cell line NCI-H196",< 4.52
same,pIC50,"NCI-H841, NCI-H841, lung, small_cell_carcinoma",4.77
same,pIC50,"NCI-H1568, cell line NCI-H1568 (lung)",5.18
same,pIC50,"NCI-H1781, cell line NCI-H1781 (lung)",4.95
same,pIC50,[6],< 4.52
same,pEC50,[6],5.53
same,pIC50,NCI-H1869 cells,< 4.52
same,pEC50,NCI-H1869 cells,5.53
same,pIC50,"NCI-H2023, NCI-H2023, lung, adenocarcinoma",4.87
same,pIC50,[7],4.62
same,pEC50,[7],4.69
same,pIC50,"NCI-H2106, lung, non_small_cell_carcinoma",< 4.52
same,pIC50,"NCI-H2172, NCI-H2172, lung, non_small_cell_carcinoma",4.61
same,pIC50,"NCI-H2330, lung, small_cell_carcinoma",< 4.52
same,pIC50,"OC 316, ovary, adenocarcinoma",< 4.52
same,pIC50,[8],4.87
same,pEC50,[8],4.93
same,pEC50,"OCI-M1, OCI-M1 cells",4.93
same,pIC50,OMM2.3 (eye),< 4.52
same,pIC50,OMM2.5 cells,< 4.52
same,pIC50,"ONCO-DG-1, cell line ONCO-DG-1",5.45
same,pEC50,"OUMS-23, OUMS-23 cells",4.75
same,pIC50,"OUMS-23, cell line OUMS-23",4.83
same,pEC50,"OUMS-23, cell line OUMS-23",4.75
same,pIC50,"OV7, OV7 cells",< 4.52
same,pIC50,"OV56, OV56 cells",< 4.52
same,pIC50,"OV56, cell line OV56",< 4.52
same,pEC50,"PL-21, PL-21 cells",4.58
same,pIC50,"PL-21, cell line PL-21",4.68
same,pEC50,"PL-21, cell line PL-21",4.58
same,pIC50,[9],4.63
same,pEC50,[9],4.63
same,pIC50,RCC10RGB cells,< 4.52
same,pEC50,RCH-ACV cells,4.92
same,pIC50,RERF-LC-AI cells,< 4.52
same,pEC50,RERF-LC-AI cells,4.75
same,pIC50,RKN (soft_tissue),< 4.52
same,pEC50,RKO (large_intestine),4.88
same,pIC50,RMUG-S (ovary),< 4.52
same,pIC50,"Ri-1, RI-1 cells",5.00
same,pEC50,"Ri-1, RI-1 cells",5.00
same,pIC50,SH-4 (skin),< 4.52
same,pIC50,"SH-10-TC, SH-10-TC (stomach)",< 4.52
same,pIC50,[10],< 4.52
same,pEC50,[10],4.95
same,pIC50,SNG-M (endometrium),< 4.52
same,pIC50,[11],4.56
same,pEC50,[11],4.56
same,pIC50,SNU-119 (ovary),< 4.52
same,pIC50,"SNU-216, SNU-216 (stomach)",< 4.52
same,pIC50,"SNU-216, cell line SNU-216, stomach",< 4.52
same,pIC50,SNU-738 (central_nervous_system),< 4.52
same,pIC50,SNU-C5 (large_intestine),< 4.52
same,pIC50,"SNU-C5 (large_intestine, adenocarcinoma)",< 4.52
same,pIC50,"SR-786, SR-786 (haematopoietic_and_lymphoid_tissue)",< 4.52
same,pIC50,"SR-786, SR-786 (haematopoietic_and_lymphoid_tissue, anaplastic_large_cell_lymphoma)",< 4.52
same,pIC50,"SUM52, SUM-52 (breast)",< 4.52
same,pIC50,"SUM52, SUM-52 (breast, NS)",< 4.52
same,pIC50,"SUM52PE, SUM52PE (breast)",< 4.52
same,pIC50,"SUM52PE, SUM52PE (breast, NS)",< 4.52
same,pIC50,[12],4.74
same,pEC50,[12],4.74
same,pIC50,"SUP-M2, SUP-M2 cells",4.74
same,pEC50,"SUP-M2, SUP-M2 cells",4.74
same,pIC50,"SW1271, SW 1271 (lung)",< 4.52
same,pIC50,"SW1271, SW 1271 (lung, small_cell_carcinoma)",< 4.52
same,pIC50,T24 (urinary_tract),< 4.52
same,pIC50,[13],< 4.52
same,pEC50,[13],5.30
same,pIC50,[14],4.55
same,pEC50,[14],5.02
same,pIC50,T778 (soft_tissue),< 4.52
same,pIC50,"T778 (soft_tissue, well_differentiated)",< 4.52
same,pIC50,"TC-71, TC-71 (bone, NS)",4.60
same,pIC50,"TE 617.T (soft_tissue, NS)",4.78
same,pEC50,"TE 617.T (soft_tissue, NS)",4.92
same,pEC50,TE 617.T cells,4.92
same,pIC50,[15],4.72
same,pEC50,[15],4.78
same,pIC50,"TE-5 (oesophagus, squamous_cell_carcinoma)",4.53
same,pIC50,"TE-6 (oesophagus, squamous_cell_carcinoma)",4.62
same,pIC50,TEN (endometrium),< 4.52
same,pIC50,[16],< 4.52
same,pEC50,[16],4.88
same,pIC50,"TF-1 (haematopoietic_and_lymphoid_tissue, acute_myeloid_leukaemia)",4.78
same,pIC50,[17],4.65
same,pEC50,[17],4.84
same,pEC50,TT2609-C02 cells,4.84
same,pIC50,U266B1 (haematopoietic_and_lymphoid_tissue),< 4.52
same,pIC50,[18],< 4.52
same,pEC50,[18],4.80
same,ACTIVITY_AREA,"UACC-62 cell line, skin, NS",41.15
same,AMAX,"UACC-62 cell line, skin, NS",-44.29
same,RESPONSE,"UACC-62 cell line, skin, NS",INTERMEDIATE
same,ACTIVITY_AREA,"UACC-257 (skin, NS)",31.33
same,AMAX,"UACC-257 (skin, NS)",-80.26
same,RESPONSE,"UACC-257 (skin, NS)",INTERMEDIATE
